According to ChEMBL document CHEMBL1139694, “N,N'-Diarylcyanoguanidines as antagonists of the CXCR2 and CXCR1 chemokine receptors” (Bioorg Med Chem Lett, 2006):

Experiments:
[1] = target: T1, C-X-C chemokine receptor type 1 (Homo sapiens, UniProt P25024); test: Displacement of [125I]IL8 from CXCR1 expressed in CHO cells; assay type: cell-based
T1 sequence (P25024 whole entry): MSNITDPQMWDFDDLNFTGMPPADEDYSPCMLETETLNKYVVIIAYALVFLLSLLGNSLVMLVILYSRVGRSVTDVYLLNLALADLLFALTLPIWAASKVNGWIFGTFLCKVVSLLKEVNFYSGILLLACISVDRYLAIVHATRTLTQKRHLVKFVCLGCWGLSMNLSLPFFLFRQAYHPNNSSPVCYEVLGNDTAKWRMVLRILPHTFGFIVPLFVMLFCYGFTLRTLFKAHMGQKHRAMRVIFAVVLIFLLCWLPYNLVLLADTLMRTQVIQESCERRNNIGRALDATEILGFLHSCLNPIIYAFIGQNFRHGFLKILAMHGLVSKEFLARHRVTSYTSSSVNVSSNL

[2] = target: T2, C-X-C chemokine receptor type 2 (Homo sapiens, UniProt P25025); test: Displacement of [125I]IL8 from CXCR2 expressed in CHO cells; assay type: cell-based
T2 sequence (P25025 whole entry): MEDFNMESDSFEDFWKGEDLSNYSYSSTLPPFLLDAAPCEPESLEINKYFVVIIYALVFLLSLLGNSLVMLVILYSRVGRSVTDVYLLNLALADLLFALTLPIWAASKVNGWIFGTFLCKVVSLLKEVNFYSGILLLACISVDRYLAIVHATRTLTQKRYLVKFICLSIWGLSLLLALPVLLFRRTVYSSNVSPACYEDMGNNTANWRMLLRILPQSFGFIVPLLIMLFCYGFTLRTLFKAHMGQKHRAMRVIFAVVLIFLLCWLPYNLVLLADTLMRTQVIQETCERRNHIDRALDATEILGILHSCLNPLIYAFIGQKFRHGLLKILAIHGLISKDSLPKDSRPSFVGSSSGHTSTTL

[3] = Dissociation constant, pKa of the compound; assay type: physicochemical
[4] = target: Interleukin-8 receptors, CXCR1/CXCR2 (Homo sapiens) (UniProt P25025+P25024); test: Selectivity for CXCR2 over CXCR1; assay type: protein assay

Compound	IC50 [1]	IC50 [2]	pKa [3]	Ratio IC50 [4]
Cc1ccc(N=C(NC#N)Nc2ccccc2Br)c(O)c1S(=O)(=O)N(C)C	187 nM (antagonist)	7 nM (antagonist)	–	–
CN(C)S(=O)(=O)c1c(Cl)ccc(N=C(NC#N)Nc2ccccc2C(F)(F)F)c1O	411 nM (antagonist)	12 nM (antagonist)	–	–
CCC(CC)(NS(=O)(=O)c1c(Cl)ccc(N/C(=N/C#N)Nc2ccccc2Br)c1O)N1C[C@@H](C)O[C@@H](C)C1	215 nM (antagonist)	9 nM (antagonist)	6.41	–
CCC(CC)(NS(=O)(=O)c1c(Cl)ccc(N=C(NC#N)Nc2ccccc2C)c1O)N1C[C@@H](C)O[C@@H](C)C1	1080 nM	17 nM (antagonist)	–	–
CCC(CC)(NS(=O)(=O)c1cccc(N/C(=N/C#N)Nc2ccccc2Br)c1O)N1CCOCC1	582 nM (antagonist)	12 nM (antagonist)	6.48	–
CCC(CC)(NS(=O)(=O)c1c(C)ccc(N=C(NC#N)Nc2ccccc2Br)c1O)N1CCOCC1	104 nM (antagonist)	6 nM (antagonist)	–	–
CCc1ccccc1NC(=Nc1ccc(Cl)c(S(=O)(=O)N(C)C)c1O)NC#N	512 nM (antagonist)	15 nM (antagonist)	–	–
CCC(CC)(NS(=O)(=O)c1c(Cl)ccc(N/C(=N/C#N)Nc2ccccc2Br)c1O)N1CCC(N)CC1	188 nM (antagonist)	22 nM (antagonist)	–	–
CN(C)S(=O)(=O)c1c(Cl)ccc(N=C(NC#N)Nc2ccccc2F)c1O	1550 nM	9 nM (antagonist)	–	–
CCC(CC)(NS(=O)(=O)c1c(Cl)ccc(N/C(=N/C#N)Nc2ccccc2Br)c1O)N1CCC[C@@H]1C(=O)O	22 nM (antagonist)	16 nM (antagonist)	–	–
Cc1ccccc1NC(=Nc1ccc(Cl)c(S(=O)(=O)N(C)C)c1O)NC#N	378 nM (antagonist)	17 nM (antagonist)	–	–

Second part, the molecule after the results:

IC50 [1]	IC50 [2]	pKa [3]	Ratio IC50 [4]	Compound
7290 nM	112 nM (antagonist)	–	–	CC(C)c1ccccc1N/C(=N\C#N)Nc1ccc(Cl)c(S(=O)(=O)N(C)C)c1O
100 nM (antagonist)	7 nM (antagonist)	–	–	CN(C)S(=O)(=O)c1c(C(F)(F)F)ccc(N/C(=N/C#N)Nc2ccccc2Br)c1O
–	–	–	> 200	CN(C)S(=O)(=O)c1c(Cl)ccc(N/C(=N/C#N)Nc2cccc(Cl)c2F)c1O
55 nM (antagonist)	5 nM (antagonist)	–	–	CN(C)S(=O)(=O)c1c(Cl)ccc(N/C(=N/C#N)Nc2ccccc2Br)c1O
6200 nM	29 nM (antagonist)	–	–	CN(C)S(=O)(=O)c1c(Cl)ccc(N=C(NC#N)Nc2cccc(Cl)c2F)c1O
293 nM (antagonist)	9 nM (antagonist)	–	–	CN(C)S(=O)(=O)c1c(Cl)ccc(N/C(=N/C#N)Nc2ccccc2OCc2ccccc2)c1O
752 nM (antagonist)	13 nM (antagonist)	–	–	CN(C)S(=O)(=O)c1c(Cl)ccc(N/C(=N/C#N)Nc2ccccc2-c2ccccc2)c1O
192 nM (antagonist)	4 nM (antagonist)	–	–	CN(C)S(=O)(=O)c1c(F)ccc(N/C(=N/C#N)Nc2ccccc2Br)c1O
